# In publication PMC6348444, “New Water-Soluble Copper(II) Complexes with Morpholine–Thiosemicarbazone Hybrids: Insights into the Anticancer and Antibacterial Mode of Action” (Journal of Medicinal Chemistry, 2018):
# Read-outs that look alike come from different tables or passages of the source. Marks after values point to notes of the source that are not given here.
# Legend:
# [1] = tested on: A2780cisR cells; assay: MTT cytotoxicity assay, A2780cisR; type: cell-based, human; details: for RF (resistance factor): IC50(A2780cisR)/IC50(A2780); for IC50: MTT assay, 72 h exposure, cisplatin-resistant A2780cisR, read-out: IC50 A2780cis
# [2] = tested on: HEK293 cells; assay: MTT cytotoxicity assay, HEK293; type: cell-based, human; details: for SF (selectivity factor): IC50(HEK293)/IC50(A2780); for IC50: MTT assay, 72 h exposure, noncancerous cells
# [3] = Solubility in water; type: physicochemical; details: sterile water stock solutions
# Procedure: Human ovarian carcinoma cells A2780 and A2780cisR and human embryonic kidney HEK293 were obtained from ATCC. A2780 and A2780cisR cells were cultured in RPMI 1640 medium containing 10% FBS. HEK293 were cultured in DMEM medium containing 10% FBS. All cells were grown in tissue culture 25 cm^2 flasks (BD Biosciences, Singapore) at 37 °C in a humidified atmosphere of 95% air and 5% CO2. All drug stock solutions were prepared in sterile water. The amount of Cu was determined by ICP–OES.
# [4] = n-octanol/water distribution coefficient, shake-flask; type: physicochemical; details: n-octanol/buffered aqueous solution, pH 7.40, UV-vis
# Procedure: The titrations were carried out under a nitrogen atmosphere.
# [5] = Cyclic voltammetry, redox potentials; type: physicochemical; details: first reduction step; for E1/2 Red1 (DMSO) vs NHE / E1/2 Red1 (MeOH) vs NHE: vs NHE (in brackets)
# Procedure: To assess the redox properties of 1-6, detailed electrochemical and spectroscopic studies in various solvents were performed using cyclic voltammetry as well as EPR-spectroelectrochemistry. Additionally, the UV-vis spectra of 1-5 were measured (Figure S8). […] The second reduction step occurred at -1.8 V versus Fc^+/Fc (-1.16 V vs NHE) and was less reversible, indicating a ligand-based reduction. […] In aqueous solutions, the reduction potentials shifted to the less negative values, and reduction was less reversible as shown for 2 in Figure S10. […] Cyclic voltammetric experiments were performed as described previously.[46] The cyclic voltammograms were measured in the cathodic region in different solvents (DMSO, methanol, DMSO/H2O). The analytical purity grade LiClO4 (Sigma-Aldrich) and distilled and deionized water were used for preparation of 1 mM aqueous solutions of the investigated complexes 1-6. EPR spectra were recorded with the EMX plus. In situ UV-vis-NIR spectroelectrochemical measurements were performed on a spectrometer (Avantes, Model AvaSpec-2048x14-USB2 in the spectroelectrochemical cell kit ([…]3)) with the Pt-microstructured honeycomb working electrode, purchased from Pine Research Instrumentation. The cell was positioned in the CUV-UV Cuvette Holder (Ocean Optics) connected to the diode-array UV-vis-NIR spectrometer by optical fibers. UV-vis-NIR spectra were processed using the AvaSoft 7.7 software package. Halogen and deuterium lamps were used as light sources (Avantes, Model AvaLight-DH-S-BAL). The in situ EPR spectroelectrochemical experiments were carried out under an argon atmosphere in the EPR flat cell equipped with a large platinum mesh working electrode. The freshly prepared solutions were carefully purged with argon and the electrolytic cell was polarized in the galvanostatic mode directly in the cylindrical EPR cavity TM-110 (ER 4103 TM), and the EPR spectra were measured in situ.
# [6] = tested on: A2780 cells; assay: Cellular accumulation of Cu by ICP-MS; type: cell-based, human; details: 24 h exposure
# Source text: The ability of anticancer drugs to penetrate biological membranes, tissues, and barriers underlies their biological, pharmacokinetic, and metabolic properties. These properties can be predicted by calculating physicochemical characteristics of drug candidates using molecular descriptors.[30] […] The results are shown in Table S7 in the Supporting Information. On the basis of the calculated physicochemical parameters, we determined if novel compounds belonged to the drug-like chemical space, which is commonly defined by the well-known Lipinski rule, or to the known drug space (KDS), which includes all small compounds in medical use.[31] […] Following the calculations, we determined the lipophilicity of all compounds experimentally (log D7.4, Tables 1 and 2). It is known that cancer cells accumulate hydrophilic compounds to a smaller extent relative to hydrophobic compounds, thereby affecting their activity. […] As expected, proligands were more lipophilic than the corresponding Cu(II) species, which are positively charged at physiological pH (Figure 3b). […] The lipophilicity of 2–5 increased in the following order 4 < 2 < 3 < 5, and correlated well with their cytotoxicity in cancer cells, with the exception of 3. Subsequently, we determined the total cellular accumulation of Cu in A2780 cells by ICP–MS upon 24 h exposure to 1–6 in comparison with CuCl2 (Table 2). […] The accumulation increased in the order 6 < 1 < 3 < 4 < 2 < 5.
# Cellular accumulation of 1–6 was determined in A2780 cells. Cells were seeded into Cellstar 6-well plates (Greiner Bio-one) at a density of 60 × 10^4 cells/well (2 mL per well). After the cells were allowed to resume exponential growth for 24 h, they were exposed to 1–6 at 1 μM for 24 h at 37 °C. The cells were washed twice with 1 mL of PBS and lysed with RIPA lysis buffer for 5–10 min at 4 °C. The cell lysates were scraped from the wells and transferred to separate 1.5 mL microtubes. The supernatant was then collected after centrifugation (13 000 rpm, 4 °C for 15 min) and total protein content of each sample was quantified via Bradford’s assay. Cell lysates were transferred to 2 mL glass vials and then digested with ultrapure 65% HNO3 at 100 °C for 24 h. The resulting solution was diluted to 1 mL (2–4% v/v HNO3) with ultrapure Milli-Q water. Cu content of each sample was quantified by ICP–MS. In was used as an internal standard. Cu and In were measured at m/z 64 and m/z 115, respectively. Metal standards for calibration curve (0, 0.5, 1, 2, 5, 10, 20, and 40 ppb) were freshly prepared before each measurement. All readings were made in triplicates in He mode. For temperature-dependent cellular accumulation experiments, A2780 cells were seeded into 35 n 10 mm tissue culture plates at a density of 60 0 10^4 cells/plate. After the cells were allowed to resume exponential growth for 24 h, they were exposed to 2 at 3 μM for 10, 30, 60, and 120 min at 37 and 4 °C. The subsequent analysis was performed as described above. For energy-dependent experiments, A2780 cells were seeded into 35 5 10 mm tissue culture plates at a density of 1 0 10^6 cells/plate. After the cells were allowed to resume exponential growth for 24 h, they were preincubated with oligomycin (5 μM) for 1 or 4 h or with cycloheximide (100 μM) for 4 h and further co-incubated with 3 μM of 2 at 37 °C. To induce total starvation, after the cells were allowed to resume exponential growth for 24 h, RPMI media was replaced with HBSS, and cells were preincubated in HBSS for 1 h and further incubated with 3 μM of 2 for 1 h at 37 °C. The subsequent analysis was performed as described above.
# [7] = tested on: Staphylococcus aureus CECT 86 (ATCC 12600); assay: MIC microdilution, S. aureus; type: cell-based; details: planktonic cells; for S. aureus MIC50: growth inhibited at 50%; for S. aureus MIC100: lowest concentration completely inhibiting growth
# Procedure: (§1) Wild-type P. aeruginosa PAO1 strain CECT 4122 (ATCC 15692) and S. aureus CECT 86 (ATCC 12600) were obtained from the Spanish Type Culture Collection (CECT). All strains were routinely cultivated in TSB medium (Sharlab, Spain) at 37 °C. MIC assays were determined by the microdilution method using TSB broth following the method described by the Clinical and Laboratory standards Institute.[94] In brief, compounds were diluted in a 96-well microtiter plate (tissue culture-treated polystyrene; […]
# [8] = tested on: A2780 cells; assay: MTT cytotoxicity assay, A2780; type: cell-based, human
# [9] = tested on: Pseudomonas aeruginosa PAO1 CECT 4122 (ATCC 15692); assay: MIC microdilution, P. aeruginosa; type: cell-based; details: planktonic cells; for P. aeruginosa MIC50: growth inhibited at 50%; for P. aeruginosa MIC100: lowest concentration completely inhibiting growth
# Procedure: as §1
# [10] = biological target: T1, mouse R2 RNR protein (Mus musculus, UniProt P11157); set-up: method as in PMID 21955844; details: mouse R2, after 5 min, same experimental conditions; cited from earlier work
# T1 construct: made in house; host or cells: Escherichia coli
# T1 sequence (P11157 1-390): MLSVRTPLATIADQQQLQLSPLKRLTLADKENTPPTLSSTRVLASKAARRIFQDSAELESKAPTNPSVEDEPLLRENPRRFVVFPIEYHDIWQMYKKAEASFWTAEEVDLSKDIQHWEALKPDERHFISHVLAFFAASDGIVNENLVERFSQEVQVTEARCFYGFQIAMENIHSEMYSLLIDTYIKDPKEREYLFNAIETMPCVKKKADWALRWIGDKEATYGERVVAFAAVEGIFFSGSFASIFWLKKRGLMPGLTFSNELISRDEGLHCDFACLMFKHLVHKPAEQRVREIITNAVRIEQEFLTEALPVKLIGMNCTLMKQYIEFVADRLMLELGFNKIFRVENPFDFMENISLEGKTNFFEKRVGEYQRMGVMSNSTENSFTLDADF
# [11] = tested on: A2780 cells; assay: Annexin V/PI apoptosis assay; type: cell-based, human; details: A2780, concentration corresponding to Cu content in 2 at 2IC50
# Source text: To elucidate if observed cytotoxicity of new compounds described in this study was a result of apoptosis induction, we conducted Annexin V/PI apoptosis assay. In brief, fluorochrome-labeled Annexin V reagent is used for detection of membrane phosphatidylserine (PS), which translocates to the cellular surface from the inner side of plasma membrane in the event of early apoptosis. Simultaneously, PI is used for detection of later stages of apoptosis or necrosis, which are characterized by loss of membrane integrity and accumulation of PI inside the cells. […] Results are illustrated in Figure 9. Upon incubation of A2780 cells with increasing concentrations of HL^2 and 2, the dose-dependent increase of apoptotic cells was observed.
# A2780 cells were seeded into Cellstar 12-well plates (Greiner Bio-One) at a density of 20 × 10^4 cells/well (1 mL per well). The cells were allowed to resume exponential growth for 24 h and subsequently they were exposed to HL^2 and 2 at different concentrations for 24 h. After the supernatant solution was collected in 1.5 mL microtubes, the cells were washed with 100 μL of trypsin, which was combined with the supernatant. Subsequently, cells were trypsinized with 200 μL of trypsin for 5 min at 37 °C, 5% CO2, washed with 200 μL of PBS, and combined with the supernatant. The cells were centrifuged at 2.5 × 10^3 rpm for 5 min and the pellets were washed once with PBS and resuspended in 500 μL of Annexin V binding buffer and stained with Annexin V-FITC and PI reagents. The fluorescence was immediately analyzed by flow cytometry. The resulting dot blots were acquired from 10 000 events and quantified using Flowjo software (Flowjo LLC, Ashland, OR, USA).
solubility in water [3] [µM],log D7.4 [4],E1/2 Red1 (DMSO) vs Fc+/Fc [5],E1/2 Red1 (DMSO) vs NHE [5],E1/2 Red1 (MeOH) vs Fc+/Fc [5],E1/2 Red1 (MeOH) vs NHE [5],cellular accumulation A2780 ([6]; 1 μM) [nmol Cu/mg protein],S. aureus MIC50 [7] [µg/mL],S. aureus MIC100 [7] [µg/mL],Structure (SMILES),RF (resistance factor) [1],IC50 [1] [nM],SF (selectivity factor) [2],IC50 [2] [nM],IC50 ([8]; 72 h exposure) [nM],P. aeruginosa MIC50 [9],P. aeruginosa MIC100 [9],further results
≤ 2000,–0.81 ± 0.04,–0.81 V,–0.17 V,–0.57 V,+0.07 V,0.63 ± 0.09,100,>500,"NC(=NN=Cc1ccc(CN2CCOCC2)cn1)[S][Cu][Cl] [complex 1, [Cu(L^1)Cl]]",5.9,13000 ± 4000,7.3,16000 ± 2000,2200 ± 100,NA (NA denotes no antibacterial activity detected (>500 μg/mL)),NA (NA denotes no antibacterial activity detected (>500 μg/mL)),–
–,–,–,–,–,–,–,–,–,"NC(=S)N/N=C/c1ncccc1N [triapine, 3-amino-2-pyridinecarboxaldehyde TSC, reference compound]",–,–,0.6,–,–,–,–,"tyrosyl radical loss [10]: 100%; IC50 ([1]; Homo sapiens): 1100 ± 100 nM; IC50 ([2]; Homo sapiens, HEK293): 390 ± 50 nM; IC50 ([8]; Homo sapiens, A2780, 72 h exposure): 670 ± 220 nM"
300,+0.86 ± 0.02,–0.80 V,–0.16 V,–0.49 V,+0.15 V,2.2 ± 0.6,3,10,"[Cl][Cu][S]C(=NN=Cc1ccc(CN2CCOCC2)cn1)N1CCCC1 [complex 3, [Cu(L^3)Cl]]",2.3,600 ± 50,3.0,780 ± 200,260 ± 20,100 µg/mL,400 µg/mL,–
–,–,–,–,–,–,–,–,–,"[Cl][Cu][Cl] [CuCl2, reference compound]",1.0,82000 ± 3000,2.3,187000 ± 37000,83000 ± 12000,–,–,induction of apoptosis [11]: no induction of apoptosis was detected; cellular accumulation A2780 ([6]; 2.5 μM): 0.17 ± 0.05 ^f nmol Cu/mg protein
